Data as given in PMC4331254 (European journal of pharmacology, 2015).
Like-named read-outs stand apart in the source and are kept apart here.

Assays:
male Sprague-Dawley rats [1] = conditions: for substitution for BU224 discriminative stimulus: full ≥ 80%, partial ≥ 60% and < 80% training drug-appropriate responding; for antagonism of the discriminative stimulus effects of BU224: 10-min pretreatment, dose ratio 95% CLs included 1
male Sprague-Dawley rats [2] = conditions: for substitution for phenyzoline discriminative stimulus: full ≥ 80%, partial ≥ 60% and < 80% training drug-appropriate responding; for antagonism of the discriminative stimulus effects of phenyzoline: 10-min pretreatment, dose ratio 95% CLs included 1
rats = conditions: rat, in vivo; cited from earlier work
[3] = tested on: rats discriminating 2-BFI; conditions: ref MacInnes and Handley, 2002, Jordan et al., 1996; cited from earlier work
I2 receptors = conditions: cited from earlier work
[4] = tested on: rats discriminating CR4056; conditions: ref Qiu et al., 2014a; cited from earlier work
M4 = M4 (Homo sapiens, UniProt P08173); test: biochemical; format: binding; conditions: read-out: % inhibition (10nM)
Sequence of M4 (P08173 whole entry): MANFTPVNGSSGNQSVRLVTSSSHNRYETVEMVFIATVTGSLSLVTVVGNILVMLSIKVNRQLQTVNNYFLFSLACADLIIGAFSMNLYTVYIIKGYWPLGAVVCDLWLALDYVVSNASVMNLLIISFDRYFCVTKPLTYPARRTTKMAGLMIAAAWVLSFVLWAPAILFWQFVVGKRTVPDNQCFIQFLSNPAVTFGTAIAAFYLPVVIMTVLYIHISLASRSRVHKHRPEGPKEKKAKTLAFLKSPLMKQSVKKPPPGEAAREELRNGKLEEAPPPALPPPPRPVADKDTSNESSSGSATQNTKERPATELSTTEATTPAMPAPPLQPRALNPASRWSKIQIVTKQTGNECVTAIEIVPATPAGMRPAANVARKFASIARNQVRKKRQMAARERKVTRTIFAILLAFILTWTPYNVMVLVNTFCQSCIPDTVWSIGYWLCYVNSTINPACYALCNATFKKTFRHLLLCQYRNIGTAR

D1 = D1 (Homo sapiens, UniProt P21728); test: Binding selectivity screening, D1; conditions: read-out: % inhibition (10nM)
SERT = SERT (Homo sapiens, UniProt P31645); test: Binding selectivity screening, SERT; conditions: read-out: % inhibition (10nM)
5-HT2C = 5-HT2C (Homo sapiens, UniProt P28335); test: Binding selectivity screening, 5-HT2C; conditions: read-out: % inhibition (10nM)
Sequence of 5-HT2C (P28335 33-458): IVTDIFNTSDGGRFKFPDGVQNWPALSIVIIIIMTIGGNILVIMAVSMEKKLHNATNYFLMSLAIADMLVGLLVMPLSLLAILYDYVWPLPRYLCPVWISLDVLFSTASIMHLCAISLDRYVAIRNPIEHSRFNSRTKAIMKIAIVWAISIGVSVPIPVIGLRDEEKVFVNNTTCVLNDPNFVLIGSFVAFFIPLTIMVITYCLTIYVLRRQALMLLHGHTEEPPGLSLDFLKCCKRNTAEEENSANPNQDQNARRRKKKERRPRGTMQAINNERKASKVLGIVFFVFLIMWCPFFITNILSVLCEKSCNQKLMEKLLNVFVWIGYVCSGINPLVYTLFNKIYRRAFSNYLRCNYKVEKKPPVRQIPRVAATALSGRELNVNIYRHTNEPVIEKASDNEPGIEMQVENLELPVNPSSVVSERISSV

H1 = H1 (Homo sapiens, UniProt P35367); test: Binding selectivity screening, H1; conditions: read-out: % inhibition (10nM)
Sequence of H1 (P35367 whole entry): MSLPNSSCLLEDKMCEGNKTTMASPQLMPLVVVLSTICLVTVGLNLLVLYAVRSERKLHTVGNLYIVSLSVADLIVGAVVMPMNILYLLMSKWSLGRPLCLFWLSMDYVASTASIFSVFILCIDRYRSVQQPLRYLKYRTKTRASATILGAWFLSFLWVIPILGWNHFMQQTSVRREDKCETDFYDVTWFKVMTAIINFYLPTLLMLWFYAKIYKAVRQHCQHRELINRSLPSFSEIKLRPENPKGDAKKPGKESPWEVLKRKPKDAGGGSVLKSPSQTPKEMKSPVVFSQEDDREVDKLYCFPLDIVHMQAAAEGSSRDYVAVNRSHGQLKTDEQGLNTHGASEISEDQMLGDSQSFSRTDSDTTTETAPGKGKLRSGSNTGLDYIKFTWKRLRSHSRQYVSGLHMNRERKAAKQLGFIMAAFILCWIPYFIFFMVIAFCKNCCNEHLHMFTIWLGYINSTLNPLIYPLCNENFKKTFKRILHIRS

5-HT5A = 5-HT5A (Homo sapiens, UniProt P47898); test: Binding selectivity screening, 5-HT5A; conditions: read-out: % inhibition (10nM)
NET = NET (Homo sapiens, UniProt P23975); test: Binding selectivity screening, NET; conditions: read-out: % inhibition (10nM)
H3 = H3 (Homo sapiens, UniProt Q9Y5N1); test: Binding selectivity screening, H3; conditions: read-out: % inhibition (10nM)
5-HT1D = 5-HT1D (Homo sapiens, UniProt P28221); test: Binding selectivity screening, 5-HT1D; conditions: read-out: % inhibition (10nM)
H4 = H4 (Homo sapiens, UniProt Q9H3N8); test: Binding selectivity screening, H4; conditions: read-out: % inhibition (10nM)
D5 = D5 (Homo sapiens, UniProt P21918); test: Binding selectivity screening, D5; conditions: read-out: % inhibition (10nM)
Sequence of D5 (P21918 whole entry): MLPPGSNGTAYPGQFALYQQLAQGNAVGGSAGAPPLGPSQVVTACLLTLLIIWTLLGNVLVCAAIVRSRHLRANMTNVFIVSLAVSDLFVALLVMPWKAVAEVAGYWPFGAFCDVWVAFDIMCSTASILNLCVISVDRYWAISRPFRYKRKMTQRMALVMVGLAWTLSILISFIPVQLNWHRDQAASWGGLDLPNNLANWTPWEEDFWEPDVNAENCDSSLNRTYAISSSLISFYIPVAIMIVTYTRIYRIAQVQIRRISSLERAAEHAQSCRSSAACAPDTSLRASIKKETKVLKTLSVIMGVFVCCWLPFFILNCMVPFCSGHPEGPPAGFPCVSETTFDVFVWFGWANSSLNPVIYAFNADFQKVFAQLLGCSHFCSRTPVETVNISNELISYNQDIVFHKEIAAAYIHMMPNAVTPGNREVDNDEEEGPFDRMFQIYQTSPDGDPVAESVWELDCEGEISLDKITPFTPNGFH

5-HT1E = 5-HT1E (Homo sapiens, UniProt P28566); test: Binding selectivity screening, 5-HT1E; conditions: read-out: % inhibition (10nM)
D2 = D2 (Homo sapiens, UniProt P14416); test: Binding selectivity screening, D2; conditions: read-out: % inhibition (10nM)
5-HT7 = 5-HT7 (Homo sapiens, UniProt P34969); test: Binding selectivity screening, 5-HT7; conditions: read-out: % inhibition (10nM)
Sequence of 5-HT7 (P34969 whole entry): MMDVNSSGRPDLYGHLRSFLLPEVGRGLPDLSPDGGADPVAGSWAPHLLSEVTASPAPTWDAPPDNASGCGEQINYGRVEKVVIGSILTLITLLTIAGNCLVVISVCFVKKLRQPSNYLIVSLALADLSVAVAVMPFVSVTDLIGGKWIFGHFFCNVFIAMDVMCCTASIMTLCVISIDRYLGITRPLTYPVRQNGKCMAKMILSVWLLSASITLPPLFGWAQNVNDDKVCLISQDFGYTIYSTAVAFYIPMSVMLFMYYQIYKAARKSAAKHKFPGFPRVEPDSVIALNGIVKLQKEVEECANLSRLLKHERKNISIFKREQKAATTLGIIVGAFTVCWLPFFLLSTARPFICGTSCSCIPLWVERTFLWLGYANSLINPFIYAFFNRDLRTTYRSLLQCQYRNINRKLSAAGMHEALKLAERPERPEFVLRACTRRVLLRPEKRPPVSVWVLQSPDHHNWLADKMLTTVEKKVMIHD

M2 = M2 (Homo sapiens, UniProt P08172); test: biochemical; format: binding; conditions: read-out: % inhibition (10nM)
Sequence of M2 (P08172 whole entry): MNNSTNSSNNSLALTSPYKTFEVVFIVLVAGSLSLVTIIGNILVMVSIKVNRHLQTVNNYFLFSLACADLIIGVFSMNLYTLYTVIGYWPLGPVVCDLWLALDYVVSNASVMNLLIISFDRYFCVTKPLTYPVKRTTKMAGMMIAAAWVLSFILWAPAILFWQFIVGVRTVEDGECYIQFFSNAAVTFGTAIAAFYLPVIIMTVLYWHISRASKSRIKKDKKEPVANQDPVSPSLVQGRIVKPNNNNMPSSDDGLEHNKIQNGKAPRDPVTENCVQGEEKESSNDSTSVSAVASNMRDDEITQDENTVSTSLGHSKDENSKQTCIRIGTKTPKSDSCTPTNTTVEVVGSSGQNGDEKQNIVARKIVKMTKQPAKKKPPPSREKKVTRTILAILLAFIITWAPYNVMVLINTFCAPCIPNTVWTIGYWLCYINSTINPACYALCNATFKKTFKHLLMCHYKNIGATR

D4 = D4 (Homo sapiens, UniProt P21917); test: Binding selectivity screening, D4; conditions: read-out: % inhibition (10nM)
alpha 2B [5] = target: alpha 2B (Homo sapiens, UniProt P35368); test: Binding selectivity screening, alpha 2B; conditions: read-out: % inhibition (10nM)
D3 = D3 (Homo sapiens, UniProt P35462); test: Binding selectivity screening, D3; conditions: read-out: % inhibition (10nM)
5-HT2A = 5-HT2A (Homo sapiens, UniProt P28223); test: Binding selectivity screening, 5-HT2A; conditions: read-out: % inhibition (10nM)
μ opioid receptor = μ opioid receptor (Homo sapiens, UniProt P35372); test: Binding selectivity screening, μ opioid receptor; conditions: read-out: % inhibition (10nM)
5-HT3 = 5-HT3 (Homo sapiens, UniProt P46098); test: Binding selectivity screening, 5-HT3; conditions: read-out: % inhibition (10nM)
alpha 2B [6] = target: alpha 2B (Homo sapiens, UniProt P18089); test: Binding selectivity screening, alpha 2B; conditions: read-out: % inhibition (10nM)
alpha 1D = alpha 1D (Homo sapiens, UniProt P25100); test: Binding selectivity screening, alpha 1D; conditions: read-out: % inhibition (10nM)
DAT = DAT (Homo sapiens, UniProt Q01959); test: Binding selectivity screening, DAT; conditions: read-out: % inhibition (10nM)
β 1 = β 1 (Homo sapiens, UniProt P08588); test: Binding selectivity screening, β 1; conditions: read-out: % inhibition (10nM)
δ opioid receptor = δ opioid receptor (Homo sapiens, UniProt P41143); test: Binding selectivity screening, δ opioid receptor; conditions: read-out: % inhibition (10nM)
5-HT1A = 5-HT1A (Homo sapiens, UniProt P08908); test: Binding selectivity screening, 5-HT1A
β 3 = β 3 (Homo sapiens, UniProt P13945); test: Binding selectivity screening, β 3; conditions: read-out: % inhibition (10nM)
5-HT1B = 5-HT1B (Homo sapiens, UniProt P28222); test: Binding selectivity screening, 5-HT1B; conditions: read-out: % inhibition (10nM)
alpha 2C = alpha 2C (Homo sapiens, UniProt P18825); test: Binding selectivity screening, alpha 2C; conditions: read-out: % inhibition (10nM)
β 2 = β 2 (Homo sapiens, UniProt P07550); test: Binding selectivity screening, β 2; conditions: read-out: % inhibition (10nM)
κ opioid receptor = κ opioid receptor (Homo sapiens, UniProt P41145); test: Binding selectivity screening, κ opioid receptor; conditions: read-out: % inhibition (10nM)
Sequence of κ opioid receptor (P41145 whole entry): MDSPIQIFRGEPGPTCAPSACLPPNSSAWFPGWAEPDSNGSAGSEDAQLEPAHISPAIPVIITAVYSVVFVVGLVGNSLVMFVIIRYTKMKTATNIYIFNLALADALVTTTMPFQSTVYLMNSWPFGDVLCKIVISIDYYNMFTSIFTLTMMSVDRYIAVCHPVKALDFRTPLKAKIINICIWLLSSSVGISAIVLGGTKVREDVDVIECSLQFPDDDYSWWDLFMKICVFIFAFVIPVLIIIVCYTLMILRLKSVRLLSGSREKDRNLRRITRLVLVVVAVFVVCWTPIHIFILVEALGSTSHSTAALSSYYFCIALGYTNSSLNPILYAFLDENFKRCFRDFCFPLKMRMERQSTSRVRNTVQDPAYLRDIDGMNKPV

M3 = M3 (Homo sapiens, UniProt P20309); test: biochemical; format: binding; conditions: read-out: % inhibition (10nM)
Sequence of M3 (P20309 whole entry): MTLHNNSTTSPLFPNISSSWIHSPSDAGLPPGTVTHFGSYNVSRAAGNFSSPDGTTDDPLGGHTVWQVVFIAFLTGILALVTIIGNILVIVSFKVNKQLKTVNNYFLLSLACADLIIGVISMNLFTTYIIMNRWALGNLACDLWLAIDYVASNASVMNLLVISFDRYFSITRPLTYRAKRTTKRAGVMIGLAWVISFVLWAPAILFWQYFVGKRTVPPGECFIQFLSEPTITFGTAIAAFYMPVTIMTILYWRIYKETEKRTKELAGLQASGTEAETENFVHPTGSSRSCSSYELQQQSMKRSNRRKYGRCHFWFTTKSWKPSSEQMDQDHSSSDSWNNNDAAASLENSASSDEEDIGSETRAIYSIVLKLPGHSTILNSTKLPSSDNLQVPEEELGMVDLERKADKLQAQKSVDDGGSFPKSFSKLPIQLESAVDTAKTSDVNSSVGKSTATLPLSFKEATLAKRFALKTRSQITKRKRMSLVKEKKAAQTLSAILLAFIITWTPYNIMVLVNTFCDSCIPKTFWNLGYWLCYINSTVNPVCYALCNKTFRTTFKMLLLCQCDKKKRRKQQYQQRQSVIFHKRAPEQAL

M5 = M5 (Homo sapiens, UniProt P08912); test: biochemical; format: binding; conditions: read-out: % inhibition (10nM)
alpha 1A = alpha 1A (Homo sapiens, UniProt P35348); test: Binding selectivity screening, alpha 1A; conditions: read-out: % inhibition (10nM)
Sequence of alpha 1A (P35348 whole entry): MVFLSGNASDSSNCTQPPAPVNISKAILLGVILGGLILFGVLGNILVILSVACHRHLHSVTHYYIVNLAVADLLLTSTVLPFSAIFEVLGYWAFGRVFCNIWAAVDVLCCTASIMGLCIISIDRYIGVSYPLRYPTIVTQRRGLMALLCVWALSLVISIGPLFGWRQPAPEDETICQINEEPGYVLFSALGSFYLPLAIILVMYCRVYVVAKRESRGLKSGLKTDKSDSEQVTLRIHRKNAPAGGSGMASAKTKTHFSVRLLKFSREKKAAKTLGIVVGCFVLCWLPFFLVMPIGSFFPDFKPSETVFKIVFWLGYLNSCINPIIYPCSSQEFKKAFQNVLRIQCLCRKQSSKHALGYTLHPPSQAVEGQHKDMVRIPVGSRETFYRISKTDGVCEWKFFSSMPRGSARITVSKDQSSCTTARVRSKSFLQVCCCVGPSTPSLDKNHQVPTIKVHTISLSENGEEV

alpha 2A = alpha 2A (Homo sapiens, UniProt P08913); test: Binding selectivity screening, alpha 2A
M1 = M1 (Homo sapiens, UniProt P11229); test: biochemical; format: binding; conditions: read-out: % inhibition (10nM)
Sequence of M1 (P11229 whole entry): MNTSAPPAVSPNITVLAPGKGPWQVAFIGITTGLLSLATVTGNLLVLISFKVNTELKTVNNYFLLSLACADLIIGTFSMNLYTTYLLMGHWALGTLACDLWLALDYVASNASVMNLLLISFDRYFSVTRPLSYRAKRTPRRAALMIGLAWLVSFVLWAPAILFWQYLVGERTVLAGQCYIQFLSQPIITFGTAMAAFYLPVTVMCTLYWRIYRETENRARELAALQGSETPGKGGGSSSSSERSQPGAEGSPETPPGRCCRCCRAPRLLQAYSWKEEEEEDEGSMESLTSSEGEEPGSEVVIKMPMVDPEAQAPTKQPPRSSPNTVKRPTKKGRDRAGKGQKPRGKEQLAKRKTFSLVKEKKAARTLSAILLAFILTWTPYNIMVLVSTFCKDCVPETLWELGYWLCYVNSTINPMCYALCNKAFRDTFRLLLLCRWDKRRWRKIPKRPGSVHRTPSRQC

For `Cl.c1ccc2oc(C3=NCCN3)cc2c1` [2-BFI, 2-(2-Benzofuranyl)-2-imidazoline hydrochloride], the “substitution for BU224 discriminative stimulus” value (male Sprague-Dawley rats [1]) is given as “fully substituted”, the “substitution for phenyzoline discriminative stimulus” value (male Sprague-Dawley rats [2]) is given as “only partially substituted” and the “dose that significantly suppresses food-maintained operant responding” value (rats) is given as 10 mg/kg.
In the case of `Cl.c1ccc2nc(C3=NCCN3)ccc2c1` [BU224, 2-(4,5-Dihydroimidazol-2-yl) quinoline hydrochloride], the “duration of discriminative stimulus effects” value (male Sprague-Dawley rats [1]; 5.6 mg/kg BU224 i.p.) is given as 120 min, the “effect on response rate” value (male Sprague-Dawley rats [1]; rat, in vivo) is given as “without significantly altering response rate” and the “substitution for 2-BFI discriminative stimulus” value [3] is given as “fully substituted”. For the same compound, the “substitution for phenyzoline discriminative stimulus” value (male Sprague-Dawley rats [2]) was “completely substituted” and the “dose that significantly suppresses food-maintained operant responding” value (rats) was 17.8 mg/kg.
For `c1ccc(-c2ncc3cc(-n4ccnc4)ccc3n2)cc1` [CR4056, 2-phenyl-6-(1H-imidazol-1-yl) quinazoline], the IC50 (I2 receptors; read-out: IC50 at I2 receptor, ref Ferrari et al., 2011) is given as 596 nM.
In the case of `COc1cccc([C@H](O)C2CCN(CCc3ccc(F)cc3)CC2)c1OC` [MDL100907, (R)-(2,3-dimethoxyphenyl)-[1-[2-(4-fluorophenyl)ethyl]-4-piperidyl] methanol], the “antagonism of the discriminative stimulus effects of BU224” value (shortened to “antagonism … of BU224”) (male Sprague-Dawley rats [1]) is reported as “failed to antagonize” and the “antagonism of the discriminative stimulus effects of phenyzoline” value (“antagonism … of phenyzoline” for short) (male Sprague-Dawley rats [2]) is reported as “failed to antagonize”.
In the case of `Clc1cccc2c1CN(C1=NCCN1)C2` [RS45041, 4-chloro-2-(imidazolin-2-yl) isoindoline], the “BU224-appropriate (drug-associated lever) responding, maximum” value (male Sprague-Dawley rats [1]; substitution test in rats discriminating 5.6 mg/kg BU224) is listed as greater than 80%, the “selectivity for I2 receptors over adrenoceptors, dopamine, 5-HT, muscarinic receptors and dihydropyridine binding sites” value (I2 receptors; ref Brown et al., 1995) is listed as greater than 1000 fold and the “phenyzoline-appropriate (drug-associated lever) responding, maximum” value (male Sprague-Dawley rats [2]; substitution test in rats discriminating 32 mg/kg phenyzoline) is listed as greater than 80%.
In the case of `NCCCCN=C(N)N` [agmatine], the “substitution for BU224 discriminative stimulus” value (male Sprague-Dawley rats [1]) is reported as “partial or less substitution”.
For `Clc1cccc(Cl)c1N=C1NCCN1` [clonidine], the “substitution for BU224 discriminative stimulus” value (male Sprague-Dawley rats [1]) was “partial or less substitution” and the “substitution for phenyzoline discriminative stimulus” value (male Sprague-Dawley rats [2]) was “partial substitution”.
With `O=C(CCCN1CCC(O)(c2ccc(Cl)cc2)CC1)c1ccc(F)cc1` [haloperidol] the “antagonism … of BU224” value (male Sprague-Dawley rats [1]) was “failed to antagonize” and the “antagonism … of phenyzoline” value (male Sprague-Dawley rats [2]) was “failed to antagonize”.
In the case of `COc1ccc2c3c([nH]c2c1)C(C)=NCC3` [harmaline], the “substitution for 2-BFI discriminative stimulus” value [3] is given as “fully substitute”.
In the case of `Cc1nccc2c1[nH]c1ccccc12` [harmane], the “substitution for BU224 discriminative stimulus” value (male Sprague-Dawley rats [1]) is listed as “fully substitutes”, the “substitution for 2-BFI discriminative stimulus” value [3] is listed as “fully substitute” and the “substitution for phenyzoline discriminative stimulus” value (male Sprague-Dawley rats [2]) is listed as “only partially substitutes”. For the same compound, the “substitution for CR4056 discriminative stimulus” value [4] was “does not substitute”.
In the case of `c1ccc2c(c1)OCC(C1=NCCN1)O2` (centres unmarked) [idazoxan], the “substitution for BU224 discriminative stimulus” value (male Sprague-Dawley rats [1]) is given as “fully substituted”, the “substitution for 2-BFI discriminative stimulus” value [3] is given as “fully substitutes” and the “substitution for phenyzoline discriminative stimulus” value (male Sprague-Dawley rats [2]) is given as “fully substituted”.
In the case of `CNC1(c2ccccc2Cl)CCCCC1=O` (centres unmarked) [ketamine], the “substitution for BU224 discriminative stimulus” value (male Sprague-Dawley rats [1]) is reported as “partial or less substitution”.
For `CCC(=O)C(CC(C)N(C)C)(c1ccccc1)c1ccccc1` (centres unmarked) [methadone], the “substitution for BU224 discriminative stimulus” value (male Sprague-Dawley rats [1]) was “partial or less substitution”.
With `CN[C@@H](C)Cc1ccccc1` [methamphetamine] the “substitution for BU224 discriminative stimulus” value (male Sprague-Dawley rats [1]) was “partial or less substitution” and the “substitution for phenyzoline discriminative stimulus” value (male Sprague-Dawley rats [2]) was “partial substitution”.
For `CN1CC[C@]23c4c5ccc(O)c4O[C@H]2[C@@H](O)C=C[C@H]3[C@H]1C5` [morphine], the “substitution for BU224 discriminative stimulus” value (male Sprague-Dawley rats [1]) was “partial or less substitution” and the “substitution for phenyzoline discriminative stimulus” value (male Sprague-Dawley rats [2]) was “partial substitution”.
In the case of `O=C1CC[C@@]2(O)[C@H]3Cc4ccc(O)c5c4[C@@]2(CCN3CC2CC2)[C@H]1O5` [naltrexone], the “antagonism … of BU224” value (male Sprague-Dawley rats [1]) is reported as “failed to antagonize” and the “antagonism … of phenyzoline” value (male Sprague-Dawley rats [2]) is reported as “failed to antagonize”.
Work on `c1ccc(CCC2=NCCN2)cc1` [phenyzoline, 4,5-dihidro-2-(2-phenylethyl)-1H-imidazole] yielded an inhibition at 0.01 µM (M4) of -0.5%, an inhibition at 0.01 µM (D1) of 0.9% and an inhibition at 0.01 µM (SERT) of 21.9%. The inhibition at 0.01 µM (5-HT2C) was 14.3%, the inhibition at 0.01 µM (H1) was -10.9% and the inhibition at 0.01 µM (5-HT5A) was 4.6%. For the same compound, the inhibition at 0.01 µM (NET) was 6.8%, the inhibition at 0.01 µM (H3) was 10.4% and the inhibition at 0.01 µM (5-HT1D) was 5%. The inhibition at 0.01 µM (H4) was 15.2%, the inhibition at 0.01 µM (D5) was -11.6% and the inhibition at 0.01 µM (5-HT1E) was -4.2%. It also gave an inhibition at 0.01 µM (D2) of -7.3%, an inhibition at 0.01 µM (5-HT7) of 23.7% and an inhibition at 0.01 µM (M2) of 11.1%. It also gave an inhibition at 0.01 µM (D4) of 9.1%, an inhibition at 0.01 µM (alpha 2B [5]) of 6.3% and an inhibition at 0.01 µM (D3) of -4.1%. For the same compound, the inhibition at 0.01 µM (5-HT2A) was 38.4%, the “duration of discriminative stimulus effects” value (male Sprague-Dawley rats [2]; 32 mg/kg phenyzoline i.p.) was 90 min and the “effect on response rate” value (male Sprague-Dawley rats [2]; rat, in vivo) was “without significantly altering response rate”. The inhibition at 0.01 µM (μ opioid receptor) was 5.4%, the inhibition at 0.01 µM (5-HT3) was -13.3% and the inhibition at 0.01 µM (alpha 2B [6]) was 42.7%. It also gave an inhibition at 0.01 µM (alpha 1D) of -0.6%, an inhibition at 0.01 µM (DAT) of 43.6% and an inhibition at 0.01 µM (β 1) of -10.1%. For the same compound, the “substitution for CR4056 discriminative stimulus” value [4] was “fully substituted”, the inhibition at 0.01 µM (δ opioid receptor) was -2.7% and the Ki (5-HT1A) was greater than 10000 nM. The inhibition at 0.01 µM (β 3) was -5.5%, the inhibition at 0.01 µM (5-HT1B) was -2.6% and the inhibition at 0.01 µM (alpha 2C) was 29.6%. For the same compound, the inhibition at 0.01 µM (β 2) was 22.9%, the inhibition at 0.01 µM (κ opioid receptor) was 7.1% and the inhibition at 0.01 µM (M3) was -2%. The inhibition at 0.01 µM (M5) was 25.9%, the inhibition at 0.01 µM (alpha 1A) was 17.3% and the Ki (alpha 2A) was 851 nM. For the same compound, the inhibition at 0.01 µM (M1) was -14.1%.
For `C(=C\c1ccccc1)/C1=NCCN1` [tracizoline, 2-styryl-4,5-dihydro-lH-imidazole], the “selectivity for I2 receptors over I1 receptors” value (I2 receptors; ref Pigini et al., 1997) is given as 10 fold and the “selectivity for I2 receptors over α2 adrenoceptors” value (I2 receptors; ref Pigini et al., 1997) is given as 7431 fold.
